Measurements from patent publication EP0686628A2, “Prostaglandin F esters” (ONO PHARMACEUTICAL CO., LTD., priority 1994, dated 1995).

Tests used:
intraocular pressure [1] = assay: Experiment 2: ocular hypotensive effect (Δ IOP) after instillation of a 0.02% solution, comparison with compared compounds; format: in vivo, Male Japanese White rabbits; details: rabbit; for Ocular Hypotensive Effects on Intraocular Pressure (Δ IOP), Time after Administration 0 hr.: 0 hr. after administration (baseline); for Ocular Hypotensive Effects on Intraocular Pressure (Δ IOP), Time after Administration 1 hr.: 1 hr. after administration; for Ocular Hypotensive Effects on Intraocular Pressure (Δ IOP), Time after Administration 2 hr.: 2 hr. after administration; for Ocular Hypotensive Effects on Intraocular Pressure (Δ IOP), Time after Administration 4 hr.: 4 hr. after administration; for Ocular Hypotensive Effects on Intraocular Pressure (Δ IOP), Time after Administration 6 hr.: 6 hr. after administration; for initial elevation of the intraocular pressure: side effect
Procedure: (§1) Male Japanese White rabbits weighing about 3.0 kg were lightly held and the intraocular pressure was measured by Applanation Pneumatonograph after corneal anesthesia with instillation of 0.4% oxybuprocaine hydrochloride solution.
(§2) A test compound was dissolved at 0.1% in vehicle which contains 2.5% glycerol and 2.0% polysorbate 80 in sterile purified water. The test solution at volume of […] was instilled into the left eye of each rabbit and the right eye remained untreated. As a control, the vehicle was instilled into the left eye in a control group. Δ IOP (mmHg), which is an index of ocular hypotensive effect, were calculated using below formula. Δ IOP = (IOPt - IOP0) - (IOPvt - IOPv0) [formula] IOPt : IOP at t hr. after instillation of a test solution IOPvt : IOP at t hr. after instillation of vehicle IOP0 : IOP just before instillation of a test solution IOPv0 : IOP just before instillation of vehicle
Further, the compounds of the present invention were compared with the compounds shown concretely in related arts hereinbefore described. The compounds have chemical structures quite similar to the compounds of the present invention were selected as compared compounds. 0.02% solutions of the compounds of the present invention were compared with the compared compounds, because the 0.02% solution is close to concentration used actually.
The compounds of the present invention and compared compounds were dissolved in vehicle at 0.02%, and Δ IOPs (mmHg) after instillation of these solution, which are the index of ocular hypotensive effects, were calculated in the same way as the experiment 1.
The graphs of the results shown in the Table 1 and Table 2 were Figure 1 and Figure 2.

intraocular pressure [2] = assay: Experiment 1: ocular hypotensive effect (Δ IOP) after instillation of a 0.1% solution into the rabbit eye; format: in vivo, Male Japanese White rabbits; details: 0.1% solution instilled into left eye, vehicle-corrected, mean of three or four samples
Procedure: as §1, §2
For example, the maximum reduction of IOP after instillation of the compounds shown as examples 1, 1(a), 1(b), 2, 3, 4 and 5 hereinafter were 6.0, 5.7, 5.4, 4.0, 4.7, 6.7 and 9.8 mmHg, respectively. And when the compound of the present invention was instilled, bulbar and palpebral conjunctival hyperemia could hardly be observed.

Row | SMILES | time after administration at which the ocular hypotensive effect appeared (intraocular pressure [1]) [h] | Ocular Hypotensive Effects on Intraocular Pressure (Δ IOP), Time after Administration 0 hr. (intraocular pressure [1]) [mmHg] | Ocular Hypotensive Effects on Intraocular Pressure (Δ IOP), Time after Administration 1 hr. (intraocular pressure [1]) [mmHg] | Ocular Hypotensive Effects on Intraocular Pressure (Δ IOP), Time after Administration 2 hr. (intraocular pressure [1]) [mmHg] | Ocular Hypotensive Effects on Intraocular Pressure (Δ IOP), Time after Administration 4 hr. (intraocular pressure [1]) [mmHg] | Ocular Hypotensive Effects on Intraocular Pressure (Δ IOP), Time after Administration 6 hr. (intraocular pressure [1]) [mmHg] | initial elevation of the intraocular pressure (intraocular pressure [1]) | duration of the initial elevation of intraocular pressure (intraocular pressure [1]) [h] | maximum reduction of IOP after instillation (intraocular pressure [2]) [mmHg] | time after administration for which the activity was maintained (intraocular pressure [1]) [h] | activity (reduction of intraocular pressure) reached at 4 hrs. after administration (intraocular pressure [1]; 4 hrs. after administration, printed as magnitude) [mmHg]
1 | CCCCC[C@H](O)CC[C@@H]1[C@@H](C/C=C\CCCC(=O)OC2CCCCC2)[C@@H](O)C[C@H]1O [Compared compound 1, 13,14-dihydro-PGF2α cyclohexyl ester, reference compound] | 4 | 0 | 11.3 | 2.3 | -5.6 | -9.3 | showed extremely strong initial elevation | – | – | – | –
2 | CCCCC(C)(C)[C@H](O)/C=C/[C@@H]1[C@@H](C/C=C\CCCC(=O)O)[C@@H](O)C[C@H]1O [Compared compound 2, 16,16-dimethyl-PGF2α, reference compound] | 4 | 0 | 4.5 | 4.5 | -2.0 | -0.8 | showed initial elevation | 4 | – | – | –
3 | CCCCC[C@H](O)CC[C@@H]1[C@@H](C/C=C\CCCC(=O)Oc2ccccc2)[C@H](O)C[C@H]1O [Example 1(a), 13,14-dihydro-PGF2β phenyl ester] | – | – | – | – | – | – | – | – | 5.7 | – | –
4 | CCCCC[C@H](O)CC[C@@H]1[C@@H](C/C=C\CCCC(=O)OCc2ccccc2)[C@H](O)C[C@H]1O [Example 1(b), 13,14-dihydro-PGF2β benzyl ester] | – | – | – | – | – | – | – | – | 5.4 | – | –
5 | CCCCC[C@H](O)CC[C@@H]1[C@@H](C/C=C\CCCC(=O)OC2CCCCC2)[C@H](O)C[C@H]1O [Example 1, 13,14-dihydro-PGF2β cyclohexyl ester] | 1 | 0 | -2.0 | -2.3 | -6.6 | -1.8 | did not show initial elevation | – | 6.0 | 6 | 6.6
6 | CCCCC(C)(C)[C@H](O)CC[C@@H]1[C@@H](C/C=C\CCCC(=O)OC(C)C)[C@@H](O)C[C@H]1O [Example 2, 16,16-dimethyl-13,14-dihydro-PGF2α isopropyl ester] | – | – | – | – | – | – | – | – | 4.0 | – | –
7 | CCCCC(C)(C)[C@H](O)/C=C/[C@@H]1[C@@H](C/C=C\CCCC(=O)OC(C)C)[C@@H](O)C[C@H]1O [Example 3, 16,16-dimethyl-PGF2α isopropyl ester] | – | – | – | – | – | – | – | – | 4.7 | – | –
8 | CCCCC(C)(C)[C@H](O)/C=C/[C@@H]1[C@@H](C/C=C\CCCC(=O)OC(C)C)[C@H](O)C[C@H]1O [Example 4, 16,16-dimethyl-PGF2β isopropyl ester] | 1 | 0 | -5.0 | -5.0 | -12.3 | -9.6 | did not show initial elevation | – | 6.7 | 6 | –
9 | CCCCC(C)(C)[C@H](O)/C=C/[C@@H]1[C@@H](C/C=C\CCCC(=O)OCC)[C@H](O)C[C@H]1O [Example 5, 16,16-dimethyl-PGF2β ethyl ester] | 1 | 0 | -2.0 | -3.5 | -7.3 | -7.3 | did not show initial elevation | – | 9.8 | 6 | –
